# Measurements taken from patent publication US11104631B1, “Isopentenyl chalcone compound and preparation method thereof” (SOUTH CHINA BOTANICAL GARDEN, CHINESE ACADEMY OF SCIENCES, priority 2018, dated 2021).
# Columns and labels:
# [1] = DPPH radical scavenging assay; format: biochemical; conditions: 0.2 mM DPPH in ethanol, dark, room temperature, 30 minutes, absorbance at 517 nm; read-out: IC50 value against DPPH radicals
# Description: DPPH is a stable free radical. When a free radical scavenger is present, light absorption of DPPH will be reduced when the single electron is scavenged, which allows to evaluate free radical scavenging ability of the substance and accordingly determine antioxidant ability thereof. The DPPH radical scavenging ability of the compound 2,2′,4,4′-tetrahydroxy-3′-(2″,3″-dihydroxy-3″-methylbutyl)chalcone was measured through the DPPH radical scavenging assay, so as to evaluate the antioxidant ability of the compound. The assay comprised the following steps: 1,1-Diphenyl-2-picrylhydrazyl (DPPH) was dissolved in absolute ethanol to obtain a solution with a concentration of 0.2 mM. The compound 2,2′,4,4′-tetrahydroxy-3′-(2″,3″-dihydroxy-3″-methylbutyl)chalcone was dissolved in absolute ethanol. 80 μL of the ethanol solution of 2,2′,4,4′-tetrahydroxy-3′-(2″,3″-dihydroxy-3″-methylbutyl)chalcone and 160 μL of the 0.2 mM DPPH ethanol solution were mixed and the mixture was placed in dark at room temperature for 30 minutes. Then, light absorbance at 517 nm was measured using a microplate reader (SpectraMax 190, Molecular Devices, USA), and Vc was employed as a positive control.
# Solubility in methanol = format: physicochemical
IC50 [1] [µM],solubility in methanol (Solubility in methanol),Compound
100,,"O=C1O[C@H]([C@@H](O)CO)C(O)=C1O [Vc, vitamin C, reference compound]"
27.6,easily soluble in methanol,"CC(C)(O)C(O)Cc1c(O)ccc(C(=O)/C=C/c2ccc(O)cc2O)c1O (stereo not drawn) [compound 1, 2,2′,4,4′-tetrahydroxy-3′-(2″,3″-dihydroxy-3″-methylbutyl)chalcone]"
